Measurements reported in patent US6686496B1, “Treatment of myeloma” (University of Central Florida, priority 2001, dated 2004).

Key:
[1] = Animal toxicity bioassay: acute toxicity, intraperitoneal injection, LD50 by Litchfield and Wilkinson; format: in vivo; details: both sexes, mouse, in vivo, ip, white mice, observed 14 days
Protocol: (§1) Acute toxicity was studied on white mice of both sexes with weight ranging between 18-26 grams under intraperitoneal injection of 2% solution of tested compound in starch (the compound was dissolved in starch slime and injected) on the basis of 0.1 ml of solution per 10 g of the animal weight. Each dose was tested on the group of 6 animals that were observed during 14 days period.

[2] = Solubility in solvents and water
[3] = system: human myeloma cells (ATCC CCL155); assay: Cytotoxicity assay: growth inhibition of CCL155 cells, MTS/PMS readout; format: cell-based; details: Table 1, approximately 48 hours with test compound, concentration not given
Protocol: The anticancer activity against human myeloma of the novel compounds (as earlier reported) was realized by the following procedure which determines the inhibitory effect of test samples on the growth of human myeloma cells.
[…]
(ATCC CCL155) The CCL155 cells are grown in RPMI 1640 media+20% Fetal bovine serum+4.5 g/L glucose+10 mM HEPES+1.0 mM sodium pyruvate+1% Antibiotic/Antimycotic for approximately 48 hours at 37° C./5% CO2 in the presence of the test compound.
Growth/Non-Growth of the cells (e.g., cell density) is determined using Promega's MTS/PMS assay system. MTS (3-(4,5-dimethylthiazol-2-yl)-5-(3-carboxymethoxyphenyl)-2-(4-sulfophenyl)-2H-tetrazolium, inner salt) is an aqueous compound that is reduced to soluble formazan by the presence of NADH formed by dehydrogenases present within the CCL155 cells. The absorbance of the formazan can be measured at 490 nm and is directly proportional to the number of living cells present in the culture. PMS (Phenazine Methosulfate) is added an electron coupling reagent and greatly increases the rate of reduction.
To facilitate a full understanding of the procedure the following definitions are offered:
Test wells—wells containing test sample and Diluted CCL155 cells
Test values—absorbance of test wells
Blank wells—wells containing test sample and CCL155 media (C155-01S); used to obtain background absorbance due to test sample
Blank values—absorbance of blank wells
Negative Control—maximal cell growth; results of test samples will be expressed as a percent of the Negative Control
Positive Control—known inhibitor of CCL155 cells; used to validate assay system
Matrix—solvent that the samples are prepared/diluted in […]
Blank values will be determined for each sample to account for any color contribution due to the sample itself. […] After completion of MTS/PMS reaction blank values will be subtracted from the test value to obtain a net absorbance that will be used to calculate cell density. […]
In order to establish the accuracy of this assay a Positive Control consisting of 50 μM Methotrexate […] of the Negative Control (CCL155 cells are somewhat resistant to methotrexate) is utilized.
In order to establish the accuracy of this assay a Positive Control consisting of 50 μM Methotrexate should show less than 75% of the net absorbance of the Negative Control is utilized.

Stability in solutions = format: physicochemical; details: solution heated or stored for a long time; forms OF-12
white mice = assay: Animal toxicity bioassay: acute toxicity, intraperitoneal injection, LD50 by Litchfield and Wilkinson; format: in vivo; details: Table 1, observed 14 days
Protocol: as §1

mice = details: cited from earlier work

COC(=O)/C(=C/C(=O)c1ccccc1)N/N=C(\C)c1ccc(Cl)cc1 [OF-20, 2-{N′-[1-(4-Chloro-phenyl)-ethylidene]-hydrazino}-4-oxo-4-phenyl-but-2-enoic acid methyl ester]
LD50 at 14 days [1]: > 250 mg/kg
Solubility in DMSO, DMFA, dichloroethane, acetonitrile [2]: highly soluble
Solubility in chloroform [2]: highly soluble
Solubility in water [2]: insoluble

COC(=O)/C(=C/C(=O)c1ccccc1)N/N=C(\c1ccccc1)c1ccccc1Br [OF-09, 2-{N′-[(2-Bromo-phenyl)-phenyl-methylene]-hydrazino}-4-oxo-4-phenyl-but-2-enoic acid methyl ester]
LD50 at 14 days [1]: > 5000 mg/kg
Solubility in DMSO, DMFA, dichloroethane, acetonitrile [2]: highly soluble
Solubility in water [2]: insoluble

CCOc1ccc(C(=O)CC(O)(NN=C2c3ccccc3-c3ccccc32)C(=O)OC)cc1 (stereo not drawn) [OF-13, 4-(4-Ethoxy-phenyl)-2-(N′-fluoren-9-ylidene-hydrazino)-2-hydroxy-4-oxo-butyric acid methyl ester]
LD50 at 14 days [1]: > 1500 mg/kg
Activity (ATCC CCL155) [3]: 99%
Stability in solutions (Stability in solutions): not stable in solutions and decomposes quickly when the solution is heated or stored for a long time

COC(=O)C(=CC(=O)C(C)(C)C)NN=C1c2ccccc2-c2ccccc21 [OF-06, 2-(N′-Fluoren-9-ylidene-hydrazino)-5,5-dimethyl-4-oxo-hex-2-enoic acid methyl ester]
LD50 (white mice): >3000 mg/kg
LD50 at 14 days [1]: > 3000 mg/kg
Solubility in DMSO, DMFA, dichloroethane, acetonitrile [2]: highly soluble
Solubility in ethanol, tetrachloromethane ([2]; ethanol, tetrachloromethane): slightly soluble
Solubility in hexane ([2]; hexane): insoluble
Activity (ATCC CCL155) [3]: 82%

N[C@@H](Cc1ccc(N(CCCl)CCCl)cc1)C(=O)O [Melphalan]
Toxicity: LD50 in mice (mice): 23 mg/kg

CCOc1ccc(/C(Cl)=C/C(=N\N=C2c3ccccc3-c3ccccc32)C(=O)OC)cc1 [3F-19, 4-Chloro-4-(4-ethoxy-phenyl)-2-(fluoren-9-ylidene-hydrazono)-but-3-enoic acid methyl ester]
LD50 (white mice): >200 mg/kg
Activity (ATCC CCL155) [3]: 100%

COC(=O)/C(=C/C(=O)c1ccccc1)NN=C1c2ccccc2-c2ccccc21 [1F-04, 2-(N′-Fluoren-9-ylidene-hydrazino)-4-oxo-4-phenyl-but-2-enoic acid methyl ester]
LD50 at 14 days [1]: > 1000 mg/kg
Solubility in DMSO, DMFA, dichloroethane, acetonitrile [2]: highly soluble
Solubility in water [2]: insoluble
Activity (ATCC CCL155) [3]: 93%

COC(=O)/C(=C/C(=O)c1ccccc1)N/N=C(\c1ccccc1)c1ccc(N(C)C)cc1 [OF-10, 2-{N′-[(4-Dimethylamino-phenyl)-phenyl-methylene]-hydrazino}-4-oxo-4-phenyl-but-2-enoic acid methyl ester]
LD50 at 14 days [1]: > 1500 mg/kg
Solubility in DMSO, DMFA, dichloroethane, acetonitrile [2]: highly soluble
Solubility in chloroform [2]: highly soluble
Solubility in water [2]: insoluble

COC(=O)C(=CC(=O)c1ccc(Cl)cc1)NN=C1c2ccccc2-c2ccccc21 [OF-07, 4-(4-Chloro-phenyl)-2-(N′-fluoren-9-ylidene-hydrazino)-4-oxo-but-2-enoic acid methyl ester]
LD50 at 14 days [1]: > 750 mg/kg
Solubility in DMSO, DMFA, dichloroethane, acetonitrile [2]: highly soluble
Solubility in water [2]: insoluble
